These results are taken from PMC10830309, “Inhibition of Pancreatic Lipase by Flavonoid Derivatives: In Vitro and In Silico Investigations” (Advances in Pharmacological and Pharmaceutical Sciences, 2024).

Like-named read-outs stand apart in the source and are kept apart here.

The target in experiment [1] is T1, Porcine pancreatic lipase, type II (Sus scrofa, UniProt P00591).
T1 construct: purchased Merck Millipore / Sigma-Aldrich L-3126
T1 sequence (P00591 1-450): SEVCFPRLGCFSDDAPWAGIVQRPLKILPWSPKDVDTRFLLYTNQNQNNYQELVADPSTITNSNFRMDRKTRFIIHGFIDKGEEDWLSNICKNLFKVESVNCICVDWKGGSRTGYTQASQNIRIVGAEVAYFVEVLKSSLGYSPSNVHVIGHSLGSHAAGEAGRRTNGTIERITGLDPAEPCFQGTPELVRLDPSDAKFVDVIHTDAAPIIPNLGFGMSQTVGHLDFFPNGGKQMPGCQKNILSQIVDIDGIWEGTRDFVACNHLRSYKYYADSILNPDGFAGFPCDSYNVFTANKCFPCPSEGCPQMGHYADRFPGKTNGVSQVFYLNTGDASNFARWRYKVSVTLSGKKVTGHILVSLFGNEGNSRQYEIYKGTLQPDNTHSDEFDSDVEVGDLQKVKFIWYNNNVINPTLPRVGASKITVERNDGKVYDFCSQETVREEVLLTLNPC
Briefly: Pancreatic lipase inhibition assay (spectrophotometric, p-NPP substrate). Format: biochemical.
Protocol: Following the experimental conditions described in the previous study [28], the assay was performed as follows: each sample solution, composed of 50 mM Tris-HCl buffer at pH 8.0, tested compound, and 10 mg/ml pancreatic lipase enzyme, was sequentially added. The resulting mixture was thoroughly mixed and incubated for 10 minutes at 37°C. Subsequently, the p-NPP substrate solution was added and mixed well. The mixture was then further incubated for 7 minutes at 37°C. The absorbance of the solution was measured at 405 nm. For the control solution, the same procedure was followed, replacing the tested compound with 10% DMSO. The blank solution was prepared with no enzyme added.
The percentage of pancreatic lipase inhibition (I%) was calculated using the following equation:(1) I%=∆A0−∆A/A0×100.
Here, ∆A0 represents the absorbance difference between the control and the blank, ∆A represents the absorbance difference between the sample and the blank, and A0 represents the absorbance of the control.
A linear regression equation was constructed to establish the correlation between the logarithm of the concentration (µM) of the tested substances and the percentage of pancreatic lipase inhibition. From this equation, the IC50 value, which indicates the concentration of the compound required for 50% inhibition, was determined.

Experiment [2] concerns the target T1, Porcine pancreatic lipase, type II. Briefly: Enzymatic inhibition kinetic analysis (Michealis–Menten and Lineweaver–Burk plots). The note with it: for Mode of enzyme inhibition: Michealis–Menten and Lineweaver–Burk plots; for Vmax in the presence of inhibitor: p-NPP 12.5-200 μM, from Michealis–Menten plots. Format: biochemical. The protocol:
Ten semisynthetic flavonoid derivatives, 2 flavanones and 8 flavones (Figure 1), reported in the previous works were used in this study.
The substrate p-NPP was examined at five distinct concentrations ranging from 12.5 μM to 200 μM. The flavonoid derivative was assessed for its lipase inhibition capacity over time at concentrations of 15 μM and 30 μM. Simultaneously, a negative control sample without the inhibitor was utilized for comparison. […] Inhibition constants (Ki) and maximum velocity (Vmax) were derived from the Michealis–Menten plots, and the mode of enzyme inhibition was elucidated through the Lineweaver–Burk plots. All parameters and graphical representations were calculated and generated using GraphPad Prism 8.4.3 software.

Details of experiment [3]: method as in PMID 11261530. The note with it: dietary contexts, clinical use; cited from earlier work.
Where [4] appears, read: p-NPP substrate, 50 mM Tris-HCl pH 8.0, 37°C, absorbance 405 nm, read-out: IC50 for pancreatic lipase.

Take `COc1cc(O)c2c(c1)OC(c1ccc(O)cc1)CC2=O` (stereo not shown) [F01, 5-hydroxy-2-(4-hydroxyphenyl)-7-methoxychroman-4-one]: in experiment [1] (setting [4]), the IC50 is 17.7 ± 1.43 µM. Also, in experiment [2], the “Mode of enzyme inhibition” value is given as “competitive” and the “Vmax in the presence of inhibitor” value is recorded as 0.03272 ΔA·min^−1. Moreover, the Ki in experiment [2] (read-out: Inhibition constant (Ki)) was 7.16 µM. `COc1ccc(C2CC(=O)c3c(O)cc(OC)cc3O2)cc1` (stereo not shown) [F02]: the IC50 in experiment [1] (setting [4]) was 76.2 ± 3.22 µM. For the compound `COc1cc2oc(-c3ccccc3)cc(=O)c2c(O)c1OC` [F03], in experiment [1] (setting [4]), the IC50 is over 500 µM. Take `CCOc1cc2oc(-c3ccccc3)cc(=O)c2c(O)c1OCC` [F04]: the IC50 in experiment [1] was over 500 µM.

In experiment [1], `C=CCOc1cc2oc(-c3ccccc3)cc(=O)c2c(O)c1OCC=C` [F05] had an IC50 of 341 ± 24.1 µM. Compound `CC(=O)Oc1cc2oc(-c3ccccc3)cc(=O)c2c(OC(C)=O)c1OC(C)=O` [F06] gave an IC50 in experiment [1] of over 500 µM. In the case of `CCC(=O)Oc1cc2oc(-c3ccccc3)cc(=O)c2c(OC(=O)CC)c1OC(=O)CC` [F07], the IC50 in experiment [1] is over 500 µM. For `COc1cc(OC)c2c(=O)cc(-c3ccc(OC)c(OC)c3)oc2c1` [F08], the IC50 in experiment [1] is 270 ± 14.6 µM. Consider `COc1cc(O)c2c(=O)cc(-c3ccc(OC)c(OC)c3)oc2c1` [F09], for which, in experiment [1] (setting [4]), the IC50 was 465 ± 11.8 µM. As to `CCOc1cc(O)c2c(=O)cc(-c3ccc(OC)c(OCC)c3)oc2c1` [F10], the IC50 in experiment [1] is over 500 µM.

For `CCCCCCCCCCC[C@@H](C[C@@H]1OC(=O)[C@H]1CCCCCC)OC(=O)[C@H](CC(C)C)NC=O` [Orlistat, reference compound], the “Reduction of fat absorption” value in experiment [3] is on record as “approximately 30%”. In experiment [2], the “Mode of enzyme inhibition” value is reported as “competitive” and the “Vmax in the presence of inhibitor” value is on record as 0.03295 ΔA·min^−1.

In general, IC50 refers to the concentration needed to halve the response being measured. As a reminder, the Ki is a measure of affinity in units of concentration, obtained from inhibition or displacement.
